Assays:
HeLa cells [1] = assay: MTT assay of cell viability / anti-proliferative activity; assay type: cell-based
HeLa cells [2] = assay: Mitochondrial membrane potential with JC-10 dye; details: 20 μM

Row | Molecule | inhibitor concentration at which maximum inhibition was reached (HeLa cells [1]; HeLa cells) [µM] | maximum inhibition in HeLa cell viability (HeLa cells [1]; at saturating concentrations) | increase of F520/F590 ratio above the normal value (HeLa cells [2])
1 | COC1=C2C[C@@H](C)C[C@H](OC)[C@H](O)[C@@H](C)/C=C(\C)[C@H](OC(N)=O)[C@@H](OC)/C=C\C=C(/C)C(=O)NC(=CC1=O)C2=O [GA, Geldanamycin] | 0.3 | ~ 40% | 
2 | p-trifluoromethoxy carbonyl cyanide phenyl hydrazone [FCCP] |  |  | up to 7 fold
